Results published in patent US20250230154A1, “COMPOUND HAVING SHP2 PROTEIN DEGRADING ACTIVITY, AND MEDICAL USES THEREOF” (UBIX THERAPEUTICS, INC., priority 2021, published 2025).

Target: T1, SHP2 protein (Homo sapiens, UniProt Q06124)
T1 sequence (Q06124 1-593): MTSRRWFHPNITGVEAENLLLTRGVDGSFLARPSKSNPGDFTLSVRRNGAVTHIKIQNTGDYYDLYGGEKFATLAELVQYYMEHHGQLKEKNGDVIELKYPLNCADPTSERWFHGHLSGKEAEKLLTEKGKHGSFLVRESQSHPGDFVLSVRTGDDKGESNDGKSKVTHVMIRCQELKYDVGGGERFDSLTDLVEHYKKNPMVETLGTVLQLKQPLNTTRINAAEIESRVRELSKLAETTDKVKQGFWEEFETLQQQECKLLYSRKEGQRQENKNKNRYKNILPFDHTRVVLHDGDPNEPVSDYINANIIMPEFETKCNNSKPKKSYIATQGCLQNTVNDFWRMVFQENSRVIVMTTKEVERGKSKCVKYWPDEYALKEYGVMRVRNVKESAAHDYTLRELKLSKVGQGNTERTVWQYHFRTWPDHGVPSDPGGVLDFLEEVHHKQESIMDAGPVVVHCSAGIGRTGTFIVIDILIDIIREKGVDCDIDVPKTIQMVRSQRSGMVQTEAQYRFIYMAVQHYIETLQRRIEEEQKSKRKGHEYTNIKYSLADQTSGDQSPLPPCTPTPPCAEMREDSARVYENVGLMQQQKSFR
Experiment: Measurement of SHP2 protein degradation in MV-4-11 cells (western blotting)
Assay type: cell-based
Set-up: endogenous in cells; host or cells: MV-4-11
Conditions: for SHP2 degradation (%) 10 nM / SHP2 degradation (%) 100 nM / SHP2 degradation (%) 1000 nM: MV-4-11 cells, 24 hours; for SHP2 protein degradation activity (in words): comment on Table 4
Procedure: Experimental Example 2: Measurement of SHP2 Protein Degradation in MV-4-11 Cells
MV-4-11 cells were treated with the synthesized Example compound, and the amount of SHP2 protein present in the cells was measured using western blotting detection. The protocol of the experiment conducted using MV-4-11 cells was as follows:
[Culture] MV-4-11 cells resuspended in IMDM MEDIUM (Hyclone, SH30228.01) containing 5% FBS (Hyclone, SV30207.02) and 1% Penicillin-streptomycin (Welgene, LS 202-02) were seeded at a density of 1×10^6/mL/well in a 12-well plate in an amount of 1 ml each.
[Compound treatment] The 12-well plate was treated as follows: Cells were treated with compounds at a final concentration of […] made by serial dilution of 10 mM stock with DMSO in 1/100 increments […]. After 24 hours, cells were harvested. For the negative control group, DMSO diluted 1/100 to the media (3 mL DMSO+297 mL media) was added.
[Harvest] Each well was collected in a 1.5 mL microtube by pipetting with a 1 mL pipette and centrifuged (500 g, 5 min, 4° C.). The supernatant was removed. It was washed with PBS, and then centrifuged again (500 g, 5 min, 4° C.). Thereafter, the supernatant was removed to prepare a pellet.
[Cell Lysis and Sample preparation] Lysis buffer was prepared as follows: […] of RIPA buffer (Biosesang, RC2038-050-00)+0.5 mM PMSF (SIGMA, P7626)+1× Protease/Phosphatase Inhibitor (Cell signaling, 5872S) per well was added and placed on ice for 30 minutes (vortexing at 0 and 30 minutes, respectively). After sonication process (10 seconds pulse, 30 seconds rest, 5 cycles, 70% amplification), centrifugation (15000 g, 15 min, 4° C.) was performed, and then only the supernatant was taken and transferred to a microtube. The sample was diluted ¼ with RIPA buffer in a 96-well plate, and mixed with A:B=50:1 of the BCA Protein Assay Kit (iNtRON, 21071). […] each of the mixture was left at 37° C. for 30 minutes, and cooled for 10 minutes. Then, absorbance was measured at 562 nm with the SYNERGY H1 microplate reader from BioTek. After making a sample by quantifying the protein with the measured value, boiling was performed at 70° C. for 10 minutes. At this time, the sample buffer used was a mixture of NuPAGE or Bolt 4× sample buffer (Invitrogen) and each 10× sample reducing agent according to the gel to be used, and RIPA buffer was used for protein dilution.
[Western blotting detection method] The same amount of sample was loaded on NuPAGE or Bolt Bis-tris 4-12% gradient gel and run (200 V, 35 minutes). It was transferred to 0.2 mm NC membrane with Trans-blot Turbo (BIO-RAD) (1.3 A constant, 25 V limit, 15 minutes). Blocking was performed at room temperature for 1 hour with Skim milk or Intercept Blocking Buffer (LI-COR, 927-60001):0.1% TBST=1:1. Anti-SHPTP2 Mouse (1:500 in 2% BSA/0.2% TBST, size: 70 kDa, Santacruz sc-7384) was incubated overnight at 4° C., and Anti-GAPDH Rabbit (1:2,000 in 2% BSA/0.2% TBST, size: 37 kDa, CST #2118) was incubated at room temperature for 1 hour 30 minutes or 3 hours. It was washed 3 times for 5 minutes each with 0.2% TBST washing buffer. Secondary antibody Anti-Rabbit IgG (1:5,000 in 2% BSA/0.2% TBST, CST), IRDye® 680RD Goat anti-Rabbit IgG Secondary Antibody (1:10,000 in 2% BSA/0.2% TBST, LI-COR 926-68071) were added and incubated for 45 minutes on a rocker at room temperature. It was washed 5 times for 5 minutes each with 0.2% TBST washing buffer and detected with LI-COR's Odyssey. At this time, SHPTP2 was detected using SuperSignal West Pico PLUS Chemiluminescent Substrate, and house-keeping genes were also detected.
In the results of Table 4 below, Compounds 1-7, 13-19, and 21-26 are results in KYSE-520 cells, and the others are results in MV-4-11 cells.

SMILES | SHP2 degradation (%) 10 nM [%] | SHP2 degradation (%) 100 nM [%] | SHP2 degradation (%) 1000 nM [%] | SHP2 protein degradation activity (in words)
Cc1ncsc1-c1ccc(CNC(=O)[C@@H]2C[C@@H](O)CN2C(=O)[C@@H](NC(=O)C2(F)CC2)C(C)(C)C)c(OCCCN2CCC(CC(=O)Nc3cccc(Sc4ncc(N5CCC(C)(N)CC5)nc4N)c3Cl)CC2)c1 [Example 9, (2S,4R)—N-(2-(3-(4-(2-((3-((3-amino-5-(4-amino-4-methylpiperidin-1-yl)pyrazin-2-yl)thio)-2-chlorophenyl)amino)-2-oxoethyl)piperidin-1-yl)propoxy)-4-(4-methylthiazol-5-yl)benzyl)-1-((S)-2-(1-fluorocyclopropane-1-carboxamido)-3,3-dimethylbutanoyl)-4-hydroxypyrrolidine-2-carboxamide] | 39.6 | 93.3 | 95.6 | –
Cc1ncsc1-c1ccc(CNC(=O)[C@@H]2C[C@@H](O)CN2C(=O)[C@@H](NC(=O)C2(F)CC2)C(C)(C)C)c(OCCCC2CCN(C(=O)C3(C(=O)Nc4cccc(Sc5cnc(N6CCC(C)(CN)CC6)cn5)c4Cl)CC3)CC2)c1 [Example 48, (2S,4R)—N-(2-(3-(1-(1-((3-((5-(4-(aminomethyl)-4-methylpiperidin-1-yl)pyrazin-2-yl)thio)-2-chlorophenyl)carbamoyl)cyclopropane-1-carbonyl)piperidin-4-yl)propoxy)-4-(4-methylthiazol-5-yl)benzyl)-1-((S)-2-(1-fluorocyclopropane-1-carboxamido)-3,3-dimethylbutanoyl)-4-hydroxypyrrolidine-2-carboxamide] | 18.6 | 57.3 | – | somewhat decreased
Cc1ncsc1-c1ccc(CNC(=O)[C@@H]2C[C@@H](O)CN2C(=O)[C@@H](NC(=O)C2(F)CC2)C(C)(C)C)c(OCCC2CCN(C(=O)C3(C(=O)Nc4cccc(Sc5cnc(N6CCC(C)(CN)CC6)cn5)c4Cl)CC3)CC2)c1 [Example 47, (2S,4R)—N-(2-(2-(1-(1-((3-((5-(4-(aminomethyl)-4-methylpiperidin-1-yl)pyrazin-2-yl)thio)-2-chlorophenyl)carbamoyl)cyclopropane-1-carbonyl)piperidin-4-yl)ethoxy)-4-(4-methylthiazol-5-yl)benzyl)-1-((S)-2-(1-fluorocyclopropane-1-carboxamido)-3,3-dimethylbutanoyl)-4-hydroxypyrrolidine-2-carboxamide] | −2.5 | 21.1 | – | somewhat decreased
Cc1ncsc1-c1ccc(CNC(=O)[C@@H]2C[C@@H](O)CN2C(=O)[C@@H](NC(=O)C2CC2)C(C)(C)C)c(OCCN2CCN(CC(=O)Nc3cccc(Sc4cnc(N5CCC(C)(CN)CC5)cn4)c3Cl)C(=O)C2)c1 [Example 79, (2S,4R)—N-(2-(2-(4-(2-((3-((5-(4-(aminomethyl)-4-methylpiperidin-1-yl)pyrazin-2-yl)thio)-2-chlorophenyl)amino)-2-oxoethyl)-3-oxopiperazin-1-yl)ethoxy)-4-(4-methylthiazol-5-yl)benzyl)-1-((S)-2-(cyclopropanecarboxamido)-3,3-dimethylbutanoyl)-4-hydroxypyrrolidine-2-carboxamide] | 78.4 | 98.6 | – | –
Cc1ncsc1-c1ccc(CNC(=O)[C@@H]2C[C@@H](O)CN2C(=O)[C@@H](NC(=O)C2(F)CC2)C(C)(C)C)c(OCCN2CCN(C(=O)CC(=O)Nc3cccc(Sc4ncc(N5CCC(C)(CN)CC5)nc4N)c3Cl)CC2)c1 [Example 55, (2S,4R)—N-(2-(2-(4-(3-((3-((3-amino-5-(4-(aminomethyl)-4-methylpiperidin-1-yl)pyrazin-2-yl)thio)-2-chlorophenyl)amino)-3-oxopropanoyl)piperazin-1-yl)ethoxy)-4-(4-methylthiazol-5-yl)benzyl)-1-((S)-2-(1-fluorocyclopropane-1-carboxamido)-3,3-dimethylbutanoyl)-4-hydroxypyrrolidine-2-carboxamide] | 85.9 | 97.8 | – | –
Cc1ncsc1-c1ccc(CNC(=O)[C@@H]2C[C@@H](O)CN2C(=O)[C@@H](NC(=O)C2(F)CC2)C(C)(C)C)c(OCCN2CCN(C(=O)CC(=O)Nc3cccc(Sc4cnc(N5CCC(C)(CN)CC5)cn4)c3Cl)CC2)c1 [Example 52, (2S,4R)—N-(2-(2-(4-(3-((3-((5-(4-(aminomethyl)-4-methylpiperidin-1-yl)pyrazin-2-yl)thio)-2-chlorophenyl)amino)-3-oxopropanoyl)piperazin-1-yl)ethoxy)-4-(4-methylthiazol-5-yl)benzyl)-1-((S)-2-(1-fluorocyclopropane-1-carboxamido)-3,3-dimethylbutanoyl)-4-hydroxypyrrolidine-2-carboxamide] | 72 | 96 | 94.5 | –
Cc1ncsc1-c1ccc(CNC(=O)[C@@H]2C[C@@H](O)CN2C(=O)[C@@H](NC(=O)C2(F)CC2)C(C)(C)C)c(OCCN2CCN(c3nccc(C(=O)Nc4cccc(Sc5cnc(N6CCC(C)(CN)CC6)cn5)c4Cl)n3)CC2)c1 [Example 86, N-(3-((5-(4-(aminomethyl)-4-methylpiperidin-1-yl)pyrazin-2-yl)thio)-2-chlorophenyl)-2-(4-(2-(2-(((2S,4R)-1-((S)-2-(1-fluorocyclopropane-1-carboxamido)-3,3-dimethylbutanoyl)-4-hydroxypyrrolidine-2-carboxamido)methyl)-5-(4-methylthiazol-5-yl)phenoxy)ethyl)piperazin-1-yl)pyrimidine-4-carboxamide] | −29.2 | 23.8 | – | –
Cc1ncsc1-c1ccc(CNC(=O)[C@@H]2C[C@@H](O)CN2C(=O)[C@@H](NC(=O)C2(F)CC2)C(C)(C)C)c(OCCC2CCN(C(=O)C(C)(C)C(=O)Nc3cccc(Sc4cnc(N5CCC(C)(CN)CC5)cn4)c3Cl)CC2)c1 [Example 49, (2S,4R)—N-(2-(2-(1-(3-((3-((5-(4-(aminomethyl)-4-methylpiperidin-1-yl)pyrazin-2-yl)thio)-2-chlorophenyl)amino)-2,2-dimethyl-3-oxopropanoyl)piperidin-4-yl)ethoxy)-4-(4-methylthiazol-5-yl)benzyl)-1-((S)-2-(1-fluorocyclopropane-1-carboxamido)-3,3-dimethylbutanoyl)-4-hydroxypyrrolidine-2-carboxamide] | 4.0 | 10.6 | – | somewhat decreased
